Columns and labels:
VEGF protein = target: T1, VEGF protein (Homo sapiens, UniProt P15692); assay: Ultrafiltration binding assay with HPLC quantification; conditions: ultrafiltration in presence and absence of VEGF protein
T1 sequence (P15692 1-191 isoform P15692-4): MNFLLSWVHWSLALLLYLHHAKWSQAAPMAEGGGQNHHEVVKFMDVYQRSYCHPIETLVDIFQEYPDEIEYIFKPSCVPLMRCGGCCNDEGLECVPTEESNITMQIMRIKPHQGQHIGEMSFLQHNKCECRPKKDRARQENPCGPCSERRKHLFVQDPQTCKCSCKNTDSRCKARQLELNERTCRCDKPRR

VEGF165 protein = target: T2, VEGF165 protein (Homo sapiens, UniProt P15692); assay: SPR binding affinity assay (Biacore T200); conditions: immobilized VEGF165, analytes 1 to 30 µM, estimated, read-out: dissociation constant (Kd)
T2 sequence (P15692 1-191 isoform P15692-4): T1 sequence (P15692 1-191 isoform P15692-4)
Protocol: In parallel, an ultrafiltration assay was conducted in the presence and absence of VEGF protein (Figure 2A). […] Subsequently, SPR investigation was performed using Biacore T200 (Cytiva, Washington, DC, USA) to detect the binding affinities of RE-1 to the targeted protein. […] When the binding activities between analytes and the protein were detected, response units (RUs) could be calculated and obtained accordingly.
Binding affinities between analytes and VEGF protein were determined using a Biacore T200 (Cytiva, Washington, DC, USA) with a GE Series dextran-coated (CM5) sensor chip. Specifically, the HBS-T mixture (150 mM NaCl, 10 mM Hepes, 0.05% polysorbate 20, 3.4 mM EDTA, 5% DMSO, pH 7.4) was selected as the operating buffer at 25 °C. The immobilizing VEGF protein was covalently placed onto the chip at the sensor surface through amide coupling reagent—EDC/NHS {1-ethyl-3-[3-(dimethylamino) propyl]carbodiimide hydrochloride)/N-hydroxysuccinimide}. Following surface activation, the VEGF protein was dissolved using a coupling buffer (0.1 M acetate buffer, pH 4.5) and placed at the surface of the sensor chip, until the RU (resonance unit) signal of the VEGF protein was detected and reached 6500 RU. To remove unreacted VEGF protein, the chip was washed and subsequently reacted with 10 mM glycine-HCl at pH 1.5. […] Data were further analyzed utilizing GE Biacore T200 control software.

VEGF/VEGFR2 complex = assay: Western blot, phosphorylation of VEGF/VEGFR2 in HUVECs; format: cell-based, human; conditions: VEGF 10 ng/mL
Protocol: (§1) In light of the investigation above, we further evaluated the anti-VEGF efficacy of RE-1 in cell studies. VEGFR2 was previously identified as the main receptor of VEGF protein. […] ERK1/2, a downstream signal factor, was subsequently stimulated and phosphorylated after the activation of VEGFR2 [17].
(A) VEGF was added at a concentration of 10 ng/mL, and avastin at 200 µg/mL was employed as the positive control. (B) The intensities of each band were quantified and analyzed with software Image Lab (6.1 version). Values were calculated as the percentage of changes compared with blank control (only medium), in mean ± SD, n = 4. * p < 0.05; compared with the control group.
(§2) HUVECs were seeded onto 12-well plates at a density of 1.5 × 10^4 cells/mL and subjected to serum starvation with a serum-free medium overnight. After treatment with various samples, the cells were directly lysed with 200 μL 2× sodium dodecyl sulfate polyacrylamide gel electrophoresis (SDS-PAGE) lysis buffer (100 mM Tris-Cl, pH 6.8, 8% SDS, 0.2% bromophenol blue, 20% glycerol, 400 mM β-mercaptoethanol). The lysates were obtained and denatured at 85 °C for 15 min. Afterwards, the samples were subjected to SDS-PAGE in a 10% gel. Then, 5% skim milk in Tris-buffered saline of pH 7.4 with 0.1% Tween-20 (as TBST) was used for blocking. […] The intensities of each band were quantified and analyzed with software Image Lab.

ERK1/2 = assay: Western blot, phosphorylation of downstream ERK1/2 in HUVECs; format: cell-based, human; conditions: in the presence of VEGF
Excerpt: as §1
(A) Cell treatment was the same as in Figure 3. […] Antibodies in use included: anti-rabbit phospho-p44/42 MAPK, anti-rabbit p44/42 MAPK (CST), and anti-rabbit horseradish peroxidase (HRP) secondary antibody. (B) The intensities of each band were quantified and analyzed with the software Image Lab. Values were calculated as percentage of changes compared with a blank control (only medium), in mean ± SD, n = 4. * p < 0.05; compared with the control group.
as §2, with “gel.” for “gel. Then, 5% skim milk in Tris-buffered saline of pH 7.4 with 0.1% Tween-20 (as TBST) was used for blocking.”

HUVECs [1] = assay: VEGF-induced cell proliferation (MTT); format: cell-based, human; conditions: VEGF 10 ng/mL, 48 h, 0.1-10 µM
Protocol: (§3) VEGF has been reported as a crucial mediator in human umbilical vein endothelial cells (HUVECs).
HUVECs were incubated in the presence of VEGF (10 ng/mL) with or without drug treatments for 48 h. […] The absorbance of the samples at 570 nm was measured using a microplate reader (Thermo Fisher Scientific, Waltham, MA, USA). * p < 0.05; ** p < 0.01; compared with the control group.
First, 5 × 10^4 cells/mL […] cells were seeded on a 96-well plate. After 24 h incubation, 100 μL VEGF at a concentration of 10 ng/mL with various concentrations of analytes were added to the mixture, followed by the addition of 10 μL of MTT solution (5 mg/mL). Th blank group was set up without any drug treatments, while avastin was utilized as a positive control. The mixture was incubated at 37 °C for 4 h before 150 μL DMSO was employed to dissolve formazan salt formed during the reaction. The sample was collected and read under a microplate reader (Thermo Fisher Scientific) at a wavelength of 570 nm. Proliferation values were calculated as follows: cell proliferation (%) = (experimental value − background value)/(blank value − background value) × 100%.

HUVECs [2] = assay: Wound closure assay; format: cell-based, human; conditions: VEGF 10 ng/mL, 0.3 µM to 3 µM, 20 h
Protocol: as §3
Figure 6 RE-1 reduces VEGF-regulated wound recovery in HUVECs. […] (D) Quantification of wound recovery. Values were calculated as percentage of changes compared with the blank control (only medium), in mean ± SD, n = 4. * p < 0.05; ** p < 0.01; compared with the control group.
A wound closure assay was performed on cultured HUVECs to study cell migration in vitro. Procedures were described previously by Guo et al.. Briefly, HUVECs were seeded onto a 12-well plate at a density of 3 × 10^5 cells/well, and treatments were added when the cells grew to full confluence. The cells were washed with PBS and treated with drugs. The photos of each cell scrape at 0 (At0) and 20 h (At20) were captured with a microscope and imaging software (Zen, https://www.zeiss.com/microscopy/en/products/software/zeiss-zen.html, accessed on 19 January 2025) at a 10× magnification. The software TScratch 1.0 (CSE Lab, Zurich, Switzerland) was used to determine the open area of each scrape photo at various timepoints. Quantification of the recovery rate of wound was calculated according to the following equation: Wound closure (%) = (At0 − At20)/[…] × 100%.

HaCaT cells [3] = assay: VEGF-mediated intracellular ROS formation (DCFH-DA); format: cell-based, human; conditions: 0.3 to 3 µM
Protocol: VEGF acts as an inducer in reactive oxygen species (ROS) formation; such an interaction plays an essential role in the activation of VEGFR2-mediated pathways and downstream cell migration.
Figure 7 RE-1 attenuates VEGF-mediated ROS formation in HaCaT cells. (A) HaCaT cells were seeded onto coverslips and mounted with Prolong Gold Antifade Reagent with DAPI. Pictures of cells were captured with confocal microscopy Leica SP8 (Leica, Germany). (B) The intensities of fluorescent signals by DCFH-DA were quantified using the software Leica Application Suite (LAS, 4.12 version) X. Values were calculated as percentage of changes compared with the blank control (only medium), in mean ± SD, n = 4. * p < 0.05; compared with the control group.
Intracellular ROS accumulation was measured with a fluorescent ROS indicator DCFH-DA. Procedures were conducted as described previously. In brief, HaCaT cells were seeded onto coverslips at a density of 1 × 10^5 cells/mL. Following drug treatments, a DCFH-DA probe diluted in serum-free medium at 20 μM was introduced to the cells. The cells were incubated with DCFH-DA for 20 min in a 37 °C incubator. PBS wash was followed to rinse off the residual DCFH-DA. Following this, the cells were fixed with 4% paraformaldehyde (PFA) in PBS for 15 min at room temperature. The PFA was washed off with a PBS wash twice. Coverslips with fixed cells were mounted with Prolong Gold Antifade Reagent with DAPI (Cell Signalling Technology, Boston, MA, USA). Pictures of cells were captured with confocal microscopy Leica SP8 system at 20× magnification (Leica, Wetzlar, Germany). The intensities of fluorescent signals by DCFH-DA were determined through the software Leica Application Suite (LAS) X (Leica Microsystems, Wetzlar, Germany).

HUVECs [4] = assay: MTT cell viability (toxicity) in HUVECs; format: cell-based, human; conditions: cultured HUVECs, concentrations up to 100 µM
HaCaT cells [5] = assay: MTT cell viability (toxicity) in HaCaT cells; format: cell-based, human; conditions: concentrations up to 100 µM
[6] = Caco-2 transepithelial permeability assay; format: in vitro ADME; conditions: human; for Papp at 0.3 µM: Caco-2, sample tested at 0.3 µM; for Papp at 3 µM: Caco-2, sample tested at 3 µM
[7] = Stability test by HPLC (intra- and inter-day variability); format: physicochemical; conditions: for Intra-day RSD: n = 6; for Intra-day Mean Peak Area: n = 6, HPLC 210 nm; for Inter-day Mean Peak Area / Inter-day RSD: n = 6, five successive days

Kd (VEGF165 protein) | Papp at 0.3 µM [6] | Papp at 3 µM [6] | Compound | disruption of phosphorylation of VEGF/VEGFR2 (VEGF/VEGFR2 complex) | inhibition of ERK1/2 phosphorylation (ERK1/2) | inhibition of VEGF-regulated cell proliferation (HUVECs [1]) | inhibition of VEGF-regulated wound closure (HUVECs [2]) | inhibition of VEGF-mediated ROS formation (HaCaT cells [3]) | toxicity (apoptosis) in MTT assay (HUVECs [4]) | toxicity (apoptosis) in MTT assay (HaCaT cells [5]) | also measured
~8 µM | 15.8 ×10⁻⁶ cm/s | 20.9 ×10⁻⁶ cm/s | COc1cc(/C=C/c2ccc(OCCCn3c4c(c5cc(Br)ccc53)CCCC4n3cccc3)cc2)cc(OC)c1 (centres unmarked) [RE-1] | able to disrupt the phosphorylation and binding activity of VEGF/VEGFR2 complex | found to block ERK1/2 phosphorylation | significant inhibitory activity | higher efficacy than resveratrol | better inhibitory performances than resveratrol | no significant apoptosis | no significant apoptosis | binding degree to the protein (VEGF protein): ~ 32%; Papp ([6]; Caco-2, concentrations from 0.3 µM to 3 µM): 15.8 to 20.9 ×10⁻⁶ cm/s; Intra-day RSD ([7]; acidic solution): 5.84%; Intra-day Mean Peak Area ([7]; acidic solution): 1316.9; Inter-day Mean Peak Area ([7]; acidic solution): 1403.9; Inter-day RSD ([7]; acidic solution): 8.83%; Intra-day RSD ([7]; basic solution): 5.81%; Intra-day Mean Peak Area ([7]; basic solution): 755.8; Inter-day Mean Peak Area ([7]; basic solution): 747.2; Inter-day RSD ([7]; basic solution): 9.35%; Intra-day RSD ([7]; neutral solution): 4.93%; Intra-day Mean Peak Area ([7]; neutral solution): 1002.8; Inter-day Mean Peak Area ([7]; neutral solution): 1046.6; Inter-day RSD ([7]; neutral solution): 9.21%
~12 µM | 15.1 ×10⁻⁶ cm/s | 18.2 ×10⁻⁶ cm/s | Oc1ccc(/C=C/c2cc(O)cc(O)c2)cc1 [resveratrol] | able to disrupt the phosphorylation and binding activity of VEGF/VEGFR2 complex | found to block ERK1/2 phosphorylation | decent inhibition | significant inhibitions to wound closure | inhibitory effectiveness | mild apoptosis at relatively high concentrations | mild apoptosis at relatively high concentrations | –
– | – | – | avastin: avastin (bevacizumab), positive control against VEGF | – | – | – | – | able to reduce such an induction | – | – | –

Source: publication PMC12155980, “Design, Synthesis, and Biological Evaluations of a Novel Resveratrol-Type Analogue Against VEGF” (Molecules, 2025)
